Assay results from US9561231B2 (AbbVie Inc., priority 2012, dated 2017).
Where two headings read alike, the source gives them in different places.

Key:
[1] = molecular target: T1, first (BD1: amino acids K57-E168) bromodomain of BRD4 (Homo sapiens, UniProt O60885); assay: TR-FRET bromodomain binding assay, BRD4 BD1; conditions: Ki calculated from IC50, probe Kd and probe concentration, read-out: TR-FRET Binding Ki: BRD4 (BDI_K57-E168)
T1 construct: His-tagged first (BD1: amino acids K57-E168)
Method in brief: (§1)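 His-tagged BRD4 BD1 (K57-E168) or BD2 ([…]) displacing an Alexa647-labelled BET-inhibitor probe in 20 mM sodium phosphate pH 6.0, 50 mM NaCl, 1 mM EDTA, 0.01% Triton X-100, 1 mM DTT.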

[2] = molecular target: T2, second (BD2: amino acids E352-E168) bromodomain of BRD4 (Homo sapiens, UniProt O60885); assay: TR-FRET bromodomain binding assay, BRD4 BD2; conditions: Ki calculated from IC50, probe Kd and probe concentration, read-out: TR-FRET Binding Ki: BRD4 (BDII_E352-M457)
T2 construct: protocol
Method in brief: as §1

[3] = system: breast cancer cell line MX-1; assay: MX-1 cell line proliferation assay (3-day); type: cell-based; conditions: Homo sapiens, MX1, MX-1 cells, Cell Titer Glo, read-out: Cellular proliferation: EC50
Experimental: The impact of compounds of the Examples on cancer cell proliferation was determined using the breast cancer cell line MX-1 (ATCC) in a 3-day proliferation assay. MX-1 cells were maintained in RPMI supplemented with 10% FBS at 37° C. and an atmosphere of 5% CO2. For compound testing, MX-1 cells were plated in 96-well black bottom plates at a density of 5000 cells/well in 90 μL of culture media and incubated at 37° overnight to allow cell adhesion and spreading. Compound dilution series were prepared in DMSO via a 3-fold serial dilution from 3 mM to 0.1 μM. The DMSO dilution series were then diluted 1:100 in phosphate buffered saline, and 10 μL of the resulted solution were added to the appropriate wells of the MX-1 cell plate. The final compound concentrations in the wells were 3, 1, 0.3, 0.1, 0.03, 0.01, 0.003, 0.001, 0.0003 and 0.0001 μM.
Luminescence readings from the Cell Titer Glo assay were normalized to the DMSO treated cells and analyzed using the GraphPad Prism software with sigmoidal curve fitting to obtain EC50s.

[4] = TR-FRET assay protocol (D, E or G) per compound
[5] = TR-FRET assay protocol (A-G, compound concentration range)

Row | Ki [1, 4] [nM] | Ki [2, 4] [nM] | EC50 ([3]; 72 hours with compound) [nM] | Ki [1, 5] [nM] | Ki [2, 5] [nM] | EC50 ([3]; 72 h incubation) [nM] | Compound
1 | 61.3 | 47 | 254 | – | – | – | CCOc1cc(=O)n(C)cc1-c1cc(NC(=O)c2cncs2)ccc1Oc1ccc(F)cc1F [Example 411, N-[4-(2,4-difluorophenoxy)-3-(4-ethoxy-1-methyl-6-oxo-1,6-dihydropyridin-3-yl)phenyl]-1,3-thiazole-5-carboxamide]
2 | – | – | – | 316 | 104 | 322 | CCS(=O)(=O)Nc1ccc(Oc2ccc(F)cc2F)c(-c2cn(C)c(=O)cc2OC2CCN(C(=O)OC(C)(C)C)CC2)c1 [Example 319, tert-butyl 4-[(5-{2-(2,4-difluorophenoxy)-5-[(ethylsulfonyl)amino]phenyl}-1-methyl-2-oxo-1,2-dihydropyridin-4-yl)oxy]piperidine-1-carboxylate]
3 | – | – | – | 43.1 | 132 | 238 | Cn1cc(-c2cc(NS(C)(=O)=O)ccc2Oc2cccc(F)c2)ccc1=O [Example 246, N-[4-(3-fluorophenoxy)-3-(1-methyl-6-oxo-1,6-dihydropyridin-3-yl)phenyl]methanesulfonamide]
4 | – | – | – | 16.2 | 6.27 | 112 | CCS(=O)(=O)Nc1ccc(Oc2ccc(F)cc2F)c(-c2cn(C)c(=O)cc2OCC2CCOC2)c1 (stereo not drawn) [Example 291, N-{4-(2,4-difluorophenoxy)-3-[1-methyl-6-oxo-4-(tetrahydrofuran-3-ylmethoxy)-1,6-dihydropyridin-3-yl]phenyl}ethanesulfonamide]
5 | – | – | – | 3.8 | 1.73 | 38.1 | CCS(=O)(=O)Nc1ccc(Oc2ccc(F)cc2F)c(-c2cn(C)c(=O)cc2-c2ccc(CN(C)C)cc2)c1 [Example 280, N-[4-(2,4-difluorophenoxy)-3-(4-{4-[(dimethylamino)methyl]phenyl}-1-methyl-6-oxo-1,6-dihydropyridin-3-yl)phenyl]ethanesulfonamide]
6 | – | – | – | 7.53 | 1.39 | 63.4 | CCS(=O)(=O)Nc1ccc(Oc2ccc(F)cc2F)c(-c2cn(C)c(=O)cc2-c2ccc(CO)cc2)c1 [Example 278, N-[4-(2,4-difluorophenoxy)-3-{4-[4-(hydroxymethyl)phenyl]-1-methyl-6-oxo-1,6-dihydropyridin-3-yl]phenyl}ethanesulfonamide]
7 | – | – | – | 11700 | 2860 | 13500 | Cn1nc(-c2ccccc2OCc2ccccc2)ccc1=O [Example 2, 6-[2-(benzyloxy)phenyl]-2-methylpyridazin-3(2H)-one]
8 | – | – | – | 63.1 | 71.9 | 1110 | CC1CCN(Cc2ccc(-c3cc(=O)n(C)nc3-c3ccccc3Oc3ccccc3)cc2)CC1 [Example 68, 2-methyl-5-{4-[(4-methylpiperidin-1-yl)methyl]phenyl}-6-(2-phenoxyphenyl)pyridazin-3(2H)-one]
9 | – | – | – | 2100 | 2420 | 9520 | COC(=O)CNc1cc(=O)n(C)nc1-c1ccccc1Oc1ccccc1 [Example 50, methyl N-[1-methyl-6-oxo-3-(2-phenoxyphenyl)-1,6-dihydropyridazin-4-yl]glycinate]
10 | – | – | – | 78.6 | 439 | 1010 | Cn1cc(-c2cc(NS(C)(=O)=O)ccc2Oc2cccc(C#N)c2)ccc1=O [Example 245, N-[4-(3-cyanophenoxy)-3-(1-methyl-6-oxo-1,6-dihydropyridin-3-yl)phenyl]methanesulfonamide]
11 | – | – | – | 216 | 406 | 2350 | Cc1cc(-c2ccccc2Oc2ccccc2)c[nH]c1=O [Example 260, 3-methyl-5-(2-phenoxyphenyl)pyridin-2(1H)-one]
12 | – | – | – | 97.4 | 12.5 | 450 | COc1cc(=O)n(C)nc1-c1cc(NS(=O)(=O)CC(F)(F)F)ccc1Oc1ccccc1 [Example 25, 2,2,2-trifluoro-N-[3-(4-methoxy-1-methyl-6-oxo-1,6-dihydropyridazin-3-yl)-4-phenoxyphenyl]ethanesulfonamide]
13 | – | – | – | 22.4 | 194 | 425 | Cn1cc(-c2cc(NS(C)(=O)=O)ccc2OC2CCCCC2)ccc1=O [Example 247, N-[4-(cyclohexyloxy)-3-(1-methyl-6-oxo-1,6-dihydropyridin-3-yl)phenyl]methanesulfonamide]
14 | 53.4 | 6.41 | 92.4 | – | – | – | CCOc1cc(=O)n(C)cc1-c1cc(S(=O)(=O)CC)ccc1Oc1ccc(OC(F)(F)F)cc1 [Example 377, 4-ethoxy-5-{5-(ethylsulfonyl)-2-[4-(trifluoromethoxy)phenoxy]phenyl}-1-methylpyridin-2(1H)-one]
15 | – | – | – | 143 | 54.5 | 637 | CCOc1cc(=O)n(C)cc1-c1cc(NC(=O)CCC(C)C)ccc1Oc1ccc(F)cc1F [Example 298, N-[4-(2,4-difluorophenoxy)-3-(4-ethoxy-1-methyl-6-oxo-1,6-dihydropyridin-3-yl)phenyl]-4-methylpentanamide]
16 | 32.3 | 16.6 | 55.2 | – | – | – | CCOc1cc(=O)n(C)cc1-c1cc(NS(=O)(=O)CC)ccc1Oc1cc(F)c(F)c(F)c1 [Example 402, N-[3-(4-ethoxy-1-methyl-6-oxo-1,6-dihydropyridin-3-yl)-4-(3,4,5-trifluorophenoxy)phenyl]ethanesulfonamide]
17 | 40.5 | 33.3 | 279 | – | – | – | CCOc1cc(=O)n(C)cc1-c1cc(NC(=O)c2ccccn2)ccc1Oc1ccc(F)cc1F [Example 415, N-[4-(2,4-difluorophenoxy)-3-(4-ethoxy-1-methyl-6-oxo-1,6-dihydropyridin-3-yl)phenyl]pyridine-2-carboxamide]
18 | 43.2 | 82.8 | 83.6 | – | – | – | CCOc1cc(=O)n(C)cc1-c1cc(NS(=O)(=O)CC)ccc1OCCC1CC1 [Example 383, N-[4-(2-cyclopropylethoxy)-3-(4-ethoxy-1-methyl-6-oxo-1,6-dihydropyridin-3-yl)phenyl]ethanesulfonamide]
19 | – | – | – | 115 | 257 | 279 | Cn1cc(-c2cc(NS(C)(=O)=O)ccc2Oc2cccc(Cl)c2)ccc1=O [Example 243, N-[4-(3-chlorophenoxy)-3-(1-methyl-6-oxo-1,6-dihydropyridin-3-yl)phenyl]methanesulfonamide]
20 | 36.3 | 4.99 | 50.2 | – | – | – | CCOc1cc(=O)n(C)cc1-c1cc(NS(=O)(=O)CC)ccc1Oc1cccnc1 [Example 405, N-[3-(4-ethoxy-1-methyl-6-oxo-1,6-dihydropyridin-3-yl)-4-(pyridin-3-yloxy)phenyl]ethanesulfonamide]
21 | – | – | – | 147 | 103 | 1340 | COc1cc(=O)n(C)nc1-c1cc(NC(C)=O)ccc1Oc1ccccc1 [Example 21, N-[3-(4-methoxy-1-methyl-6-oxo-1,6-dihydropyridazin-3-yl)-4-phenoxyphenyl]acetamide]
22 | – | – | – | 710 | 227 | 7620 | COc1cc(=O)n(C)nc1-c1cc(NS(=O)(=O)CCC(F)(F)F)ccc1Oc1ccccc1 [Example 28, 3,3,3-trifluoro-N-[3-(4-methoxy-1-methyl-6-oxo-1,6-dihydropyridazin-3-yl)-4-phenoxyphenyl]propane-1-sulfonamide]
23 | – | – | – | 135 | 63.6 | 615 | Cn1nc(-c2ccccc2Oc2ccccc2)c(-c2ccc(NS(C)(=O)=O)cc2)cc1=O [Example 119, N-{4-[1-methyl-6-oxo-3-(2-phenoxyphenyl)-1,6-dihydropyridazin-4-yl]phenyl}methanesulfonamide]
24 | – | – | – | 219 | 93.6 | 1060 | Cn1cc(-c2cc(S(N)(=O)=O)ccc2Oc2ccccc2)ccc1=O [Example 256, 3-(1-methyl-6-oxo-1,6-dihydropyridin-3-yl)-4-phenoxybenzenesulfonamide]
25 | 113 | 31.7 | 103 | – | – | – | CCOc1cc(=O)n(C)cc1-c1cc(S(=O)(=O)CC)ccc1Oc1ccc(C#N)cc1 [Example 378, 4-[2-(4-ethoxy-1-methyl-6-oxo-1,6-dihydropyridin-3-yl)-4-(ethylsulfonyl)phenoxy]benzonitrile]
26 | – | – | – | 5.81 | 2.76 | 33.6 | CCS(=O)(=O)Nc1ccc(Oc2ccc(F)cc2F)c(-c2cn(C)c(=O)cc2NC2CC2)c1 [Example 362, N-{3-[4-(cyclopropylamino)-1-methyl-6-oxo-1,6-dihydropyridin-3-yl]-4-(2,4-difluorophenoxy)phenyl}ethanesulfonamide]
